Series [1] is described as follows: Test Example 3: Solubility in oils and polyols. In kind it is physicochemical. More on the design: key: −: Non-soluble; +: Soluble (recrystallization occurred after cooling to room temperature); ++: Very soluble (recrystallization did not occur after cooling to room temperature). The following applies: heated at 80° C., cooled to room temperature. The protocol: The ceramides of Example 4, Comparative Example 1, and Comparative Example 2 were mixed with oils and polyols at 0.1 to 1.0 wt % relative to the solvent substance, and then heated with stirring at 80° C. and then cooled to room temperature.

The subject of series [2] is skin erythema index on the cheek area. As to the kind of experiment: Test Example 6: erythema relieving effect (Mexameter MX 18). It counts as in vivo, human. As to the method:
The branched chain fatty acid ceramide-containing formulation prepared in Example 6 was clinically tested for erythema relieving effect. Specifically, for erythema measurement, a total of 10 test subjects were subjected to application of the branched chain fatty acid ceramide-containing formulation prepared in Example 6 twice a day, and measured before use (Week 0), 1 week after use, and 2 weeks after use by an instrument. The skin erythema index on the cheek area was measured using Mexameter MX 18 of Courage+Khazaka (C-K) (Cologne, Germany).

Consider `CCCCCCCC/C=C\CCCCCCCC(=O)N[C@@H](CO)[C@H](O)/C=C/CCCCCCCCCCCCC` [Comparative Example 2, Oleoyl ceramide, reference compound], for which the Solubility entry in series [1] (Butylene glycol, 0.1%) is “+”; in series [1] (Butylene glycol, 0.5%) it was “+”; in series [1] (Caprylic/capric triglyceride, 0.1%), “−”; in series [1] (Caprylic/capric triglyceride, 0.5%), “−”; in series [1] (Cetyl ethyl hexanoate, 0.1%) it was “−”; in series [1] (Cetyl ethyl hexanoate, 0.5%) it was “−”. For the same compound, the Solubility result in series [1] (Dipropylene glycol, 0.1%) is “+”; in series [1] (Dipropylene glycol, 0.5%), “−”; in series [1] (Glycerin, 0.1%), “−”; in series [1] (Glycerin, 0.5%), “−”; in series [1] (Macadamia ternifolisa seed oil, 0.1%), “−”; in series [1] (Macadamia ternifolisa seed oil, 0.5%), “−”. In addition, the Solubility entry was “−” in series [1] (Propylene glycol, 0.1%) and “−” in series [1] (Propylene glycol, 0.5%). The “Erythema (skin erythema index)” value in series [2] (Week 0 (before use)) is given as 261.53 ± 10.82; in series [2] (Week 1, applied twice a day), 236.2 ± 11.578; in series [2] (Week 2, applied twice a day), 213.47 ± 11.518.
